Assay results from patent US20240166626A1, “Compounds and Methods for Preventing, Treating, or Ameliorating Airway Disease” (THOMAS JEFFERSON UNIVERSITY, priority 2021, published 2024).

Target: GRK5 (Homo sapiens, UniProt P34947)
Experiment: In vitro tubulin phosphorylation assay with purified GRK5
Format: biochemical
Conditions: 10 μM DFPQ, FIG. 3C
Protocol: FIGS. 3A-3D: DFPQ inhibits GRK-mediated phosphorylation of the β2AR. FIG. 3A: Representative time course of agonist promoted phosphorylation of the β2AR. […] Cells were lysed and the FLAG-β2AR was immunoprecipitated. Phosphorylation at […] and 356 was analyzed by western blot using a pSer^355/356 antibody while total β2AR was measured using a β2AR C-terminal antibody. The western blot is representative of at least 3 experiments and is quantified in FIG. 3B. FIG. 3C: […] FIG. 3D: Bar graphs represent pixel densitometry of radiolabeled tubulin at the 60 min timepoint from 4 experiments. […]® ADRB2 cells (DiscoveRx) were maintained with the AssayCompleteTM Cell Culture kit (DiscoveRx catalog #92-[…]). […] Cells were read every three minutes for 18 minutes on a PolarStar Optima plate reader (BMG) to establish peak signal. […] Luminescence was determined at room temperature (23-25° C.) on a PolarStar Optima plate reader (BMG). […] Relative assay bias was calculated from the ratio of normalized cAMP and arrestin recruitment responses. […] BRET was measured using a Tecan Infinite F500 microplate reader. […] Bound [35 S]GTPγS was collected by rapid filtration on GF/B filters, washed 4 times with 4 ml of cold GTPγS wash buffer and analyzed by liquid scintillation counting. […] Immunoprecipitated proteins were separated by SDS-PAGE and analyzed by western blot using a β2AR C-terminal tail or phospho-specific antibody. […]

GRK5, sequence (P34947 whole entry, species assumed): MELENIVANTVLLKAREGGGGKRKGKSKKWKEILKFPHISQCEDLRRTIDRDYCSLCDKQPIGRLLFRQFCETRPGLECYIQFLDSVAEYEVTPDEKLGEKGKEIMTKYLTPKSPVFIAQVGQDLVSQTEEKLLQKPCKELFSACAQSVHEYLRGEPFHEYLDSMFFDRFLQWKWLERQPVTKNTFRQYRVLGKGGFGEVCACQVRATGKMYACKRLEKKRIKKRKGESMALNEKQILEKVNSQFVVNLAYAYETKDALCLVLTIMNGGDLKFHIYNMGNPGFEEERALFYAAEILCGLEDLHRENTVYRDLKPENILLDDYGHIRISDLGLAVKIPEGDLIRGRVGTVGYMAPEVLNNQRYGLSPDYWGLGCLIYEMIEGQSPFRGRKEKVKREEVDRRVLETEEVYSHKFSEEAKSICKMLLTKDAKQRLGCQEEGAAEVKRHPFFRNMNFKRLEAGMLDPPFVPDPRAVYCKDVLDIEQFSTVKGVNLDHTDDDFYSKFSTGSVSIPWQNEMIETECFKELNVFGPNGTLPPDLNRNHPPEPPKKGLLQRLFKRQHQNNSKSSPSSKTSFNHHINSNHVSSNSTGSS

Fc1ccc(Nc2nc(NC3CCCCC3)c3ccccc3n2)cc1F [DFPQ, N^4-cyclohexyl-N^2-(3,4-difluorophenyl)quinazoline-2,4-diamine]
phosphorylation of tubulin by GRK5 (60-minute time course): unaffected
GRK5 autophosphorylation: lack of an effect
